Results published in paper PMC8073907, “Peptide targeting of lysophosphatidylinositol-sensing GPR55 for osteoclastogenesis tuning” (Cell Communication and Signaling : CCS, 2021).

Tested on: RAW264.7 cells
Assay: Filopodium formation / actin morphology in siRNA-interfered RAW264.7 cells (confocal microscopy)
Format: cell-based, murine
Details: 10 µM soybean LPI
Procedure: For transient interference of Gpr55, RAW264.7 cells were plated at 6 × 10^5 cells/well in six-well plates in growth medium without antibiotics. Twenty-four hours later, the cells were transfected with 250 pmol/well non-targeting small-interfering (si)RNAs (si-NT; siGENOME siRNA Pool #2; D-001206-14; Dharmacon, Chicago, IL, USA) or Gpr55-specific siRNAs (si-GPR55; siGENOME mouse GPR55 SMART pool; M-043590-01; Dharmacon) using Lipofectamine LTX and Plus Reagent, according to the manufacturer instructions. Twenty-four hours later, the cells were plated for the different assays or for RNA extraction. The efficiency of interference was monitored by real-time PCR after 72 h of interference, using the primers listed in the Additional file 1: Table S1. β2-microglobulin was followed as a housekeeping gene.
Twenty-four hours after plating the RAW264.7 cells at a density of 1.2 × 10^6 cells/well in six-well plates, or 2.5 × 10^5 cells/well in 24-well plates on coverslips, the cells were serum deprived for 2 h and then stimulated while adhered, with LPI in the assay buffer (0.1% faf-BSA, 20 mM HEPES in HBSS^++). […] Finally, the fixed cells were stained with 33 nM Alexa546-labelled phalloidin for 1 h at room temperature, washed three times (10 min each) with cytoskeleton buffer, suspended in PBS with 3% BSA, and analysed by FACS (FACSCalibur or FACSAria III; Becton Dickinson, Franklin Lakes, NJ). […]

Substance: lysophosphatidylinositol [LPI]
- actin cytoskeleton reorganisation, si-GPR55 (si-GPR55 cells): no significant signs of actin cytoskeleton reorganisation
- numbers of filopodia, si-NT (si-NT cells): time-dependent increase in the numbers of filopodia
